The values below come from PubChem BioAssay AID1745844 (Carcinogenic Potency Database (CPDB), 2022).

The source made the active and inactive calls. No rule for the calls is given here.

For the data set, the system named is rodent lifetime carcinogenesis bioassay, tumor incidence TD50. Put plainly: chronic cancer bioassays in animals – CPDB, compiled studies (AID 1745844).

Usually TD50 stands for the 50% point of the dose-response relation for the toxic effect studied. For `Brc1cc(Br)c(-c2c(Br)c(Br)c(Br)c(Br)c2Br)c(Br)c1Br`, the TD50 (mouse, strain B6C3F1, females, in feed, site: any site (literature study), lesion: several types, types named in the paper, dosed 78 weeks, study length 78 weeks) stood at 4.9 mg/kg/day; the TD50 (mouse, strain B6C3F1, females, in feed, site: liver, lesion: hepatocellular carcinoma, dosed 78 weeks, study length 78 weeks) is 13.7 mg/kg/day; the TD50 (mouse, strain B6C3F1, females, in feed, site: liver, lesion: neoplastic nodule, dosed 78 weeks, study length 78 weeks) is 4.89 mg/kg/day; the TD50 (mouse, strain B6C3F1, males, in feed, site: any site (literature study), lesion: several types, types named in the paper, dosed 78 weeks, study length 78 weeks) was 2.07 mg/kg/day; the TD50 (mouse, strain B6C3F1, males, in feed, site: liver, lesion: hepatoblastoma, dosed 78 weeks, study length 78 weeks) is 35.4 mg/kg/day; the TD50 (mouse, strain B6C3F1, males, in feed, site: liver, lesion: hepatocellular carcinoma, dosed 78 weeks, study length 78 weeks) was 3.44 mg/kg/day. Further, the TD50 (mouse, strain B6C3F1, males, in feed, site: liver, lesion: neoplastic nodule, dosed 78 weeks, study length 78 weeks) was 2.86 mg/kg/day.
In the case of `ON=C1CCCC1`, the TD50 is, setting by setting: (rat, strain Fischer 344, males, by gavage, site: liver, lesion: hepatocellular carcinoma, dosed 50 weeks, study length 83 weeks) 70.7 mg/kg/day; (rat, strain Fischer 344, males, by gavage, site: liver, lesion: several types, types named in the paper, dosed 50 weeks, study length 83 weeks) 40.9 mg/kg/day.
For the compound `C=CCCl`, the TD50 is 343 mg/kg/day (mouse, strain B6C3F1, females, by gavage, site: any site (literature study), lesion: several types, types named in the paper, dosed 78 weeks, study length 91 weeks); 2180 mg/kg/day (mouse, strain B6C3F1, females, by gavage, site: liver, lesion: hepatocellular adenoma + hepatocellular carcinoma + neoplastic nodule, dosed 78 weeks, study length 91 weeks); 1250 mg/kg/day (mouse, strain B6C3F1, females, by gavage, site: lung, lesion: alveolar/bronchiolar adenoma + alveolar/bronchiolar carcinoma, dosed 78 weeks, study length 91 weeks); 706 mg/kg/day (mouse, strain B6C3F1, females, by gavage, site: stomach, lesion: squamous-cell carcinoma + squamous-cell papilloma, dosed 78 weeks, study length 91 weeks); 184 mg/kg/day (mouse, strain B6C3F1, males, by gavage, site: any site (literature study), lesion: several types, types named in the paper, dosed 67 weeks, study length 91 weeks); 457 mg/kg/day (mouse, strain B6C3F1, males, by gavage, site: liver, lesion: hepatocellular adenoma + hepatocellular carcinoma + neoplastic nodule, dosed 67 weeks, study length 91 weeks). For the same compound, the TD50 runs as follows: (mouse, strain B6C3F1, males, by gavage, site: stomach, lesion: squamous-cell carcinoma + squamous-cell papilloma, dosed 67 weeks, study length 91 weeks) 727 mg/kg/day; (rat, strain Osborne-Mendel, females, by gavage, site: any site (literature study), lesion: several types, types named in the paper, dosed 78 weeks, study length 110 weeks) 35.2 mg/kg/day; (rat, strain Osborne-Mendel, males, by gavage, site: any site (literature study), lesion: several types, types named in the paper, dosed 78 weeks, study length 110 weeks) 28.1 mg/kg/day.
For the compound `Cc1ccc(Cl)cc1N`, the TD50 is 143 mg/kg/day (mouse, strain B6C3F1, females, in feed, site: all sites + liver, lesion: hemangiosarcoma + hepatocellular adenoma + hepatocellular carcinoma, dosed 78 weeks, study length 91 weeks); 373 mg/kg/day (mouse, strain B6C3F1, females, in feed, site: all sites, lesion: hemangiosarcoma, dosed 78 weeks, study length 91 weeks); 164 mg/kg/day (mouse, strain B6C3F1, females, in feed, site: any site (literature study), lesion: several types, types named in the paper, dosed 78 weeks, study length 91 weeks); 180 mg/kg/day (mouse, strain B6C3F1, females, in feed, site: liver, lesion: hepatocellular adenoma + hepatocellular carcinoma + neoplastic nodule, dosed 78 weeks, study length 91 weeks); 180 mg/kg/day (mouse, strain B6C3F1, females, in feed, site: liver, lesion: hepatocellular adenoma + hepatocellular carcinoma, dosed 78 weeks, study length 91 weeks); 217 mg/kg/day (mouse, strain B6C3F1, females, in feed, site: liver, lesion: hepatocellular carcinoma, dosed 78 weeks, study length 91 weeks). In addition, the TD50 reads like this: (mouse, strain B6C3F1, females, in feed, site: lung, lesion: alveolar/bronchiolar adenoma + alveolar/bronchiolar carcinoma, dosed 78 weeks, study length 91 weeks) 7480 mg/kg/day; (mouse, strain B6C3F1, males, in feed, site: all sites + liver, lesion: hemangiosarcoma + hepatocellular adenoma + hepatocellular carcinoma, dosed 78 weeks, study length 91 weeks) 134 mg/kg/day; (mouse, strain B6C3F1, males, in feed, site: all sites, lesion: hemangiosarcoma, dosed 78 weeks, study length 91 weeks) 213 mg/kg/day; (mouse, strain B6C3F1, males, in feed, site: any site (literature study), lesion: several types, types named in the paper, dosed 78 weeks, study length 91 weeks) 132 mg/kg/day; (mouse, strain B6C3F1, males, in feed, site: liver, lesion: hepatocellular adenoma + hepatocellular carcinoma + neoplastic nodule, dosed 78 weeks, study length 91 weeks) 249 mg/kg/day; (mouse, strain B6C3F1, males, in feed, site: liver, lesion: hepatocellular adenoma + hepatocellular carcinoma, dosed 78 weeks, study length 91 weeks) 249 mg/kg/day. The TD50 runs as follows: (mouse, strain B6C3F1, males, in feed, site: liver, lesion: hepatocellular carcinoma, dosed 78 weeks, study length 91 weeks) 271 mg/kg/day; (rat, strain Fischer 344, males, in feed, site: adrenal gland, lesion: pheochromocytoma, dosed 78 weeks, study length 103 weeks) 714 mg/kg/day (inactive); (rat, strain Fischer 344, males, in feed, site: any site (literature study), lesion: several types, types named in the paper, dosed 78 weeks, study length 103 weeks) 1020 mg/kg/day; (rat, strain Fischer 344, males, in feed, site: liver, lesion: hepatocellular adenoma + hepatocellular carcinoma + neoplastic nodule, dosed 78 weeks, study length 103 weeks) 3340 mg/kg/day. Further, for the setting “rat, strain Fischer 344, females, in feed, site: any site (literature study), lesion: several types, types named in the paper, dosed 78 weeks, study length 103 weeks”, the carcinogen call is “negative (inactive)”.
In the case of `S=c1nc[nH]c2nc[nH]c12`, the TD50 is 58.1 mg/kg/day (inactive) (rat, strain BR 46, males, i.v., site: any site (literature study), lesion: several types, types named in the paper, dosed 52 weeks, study length 104 weeks); 22.5 mg/kg/day (rat, strain F344/DuCrj, females, in feed, site: adrenal gland, lesion: pheochromocytoma, dosed 104 weeks, study length 113 weeks); 10.3 mg/kg/day (rat, strain F344/DuCrj, females, in feed, site: any site (literature study), lesion: malignant tumor, dosed 104 weeks, study length 113 weeks); 4.74 mg/kg/day (rat, strain F344/DuCrj, females, in feed, site: any site (literature study), lesion: several types, types named in the paper, dosed 104 weeks, study length 113 weeks); 34.1 mg/kg/day (rat, strain F344/DuCrj, females, in feed, site: central nervous system, lesion: several types, types named in the paper, dosed 104 weeks, study length 113 weeks); 139 mg/kg/day (rat, strain F344/DuCrj, females, in feed, site: liver, lesion: hepatocellular carcinoma, dosed 104 weeks, study length 113 weeks). The TD50 (rat, strain F344/DuCrj, females, in feed, site: uterus, lesion: adenocarcinoma, dosed 104 weeks, study length 113 weeks) came to 34.1 mg/kg/day.
